Laboratory results taken from paper PMC9958325 (Nature Communications, 2023).
Several values for one entry are separate records, joined by “and”; a condition that tells them apart may be missing. Equal entries are not always repeated. Where two headings read alike, the source gives them in different places.

Experiments:
[1] = Pharmacokinetic study in PXB-mice (human liver-chimeric); conditions: p.o., individual animals (3 per time point), LC/MS/MS
[2] = tested on: HeLa-ACE2-TMPRSS2 cells; assay: Intracellular concentrations of compounds (LC/MS), HeLa-ACE2-TMPRSS2 cells; conditions: for Intracellular amount, avg / Intracellular amount, individual: 6 h; for intracellular compound, /1x10^6: calculated value per cell count; for intracellular compound, calculated value /20uL: from AUC against pmol standard curve
[3] = tested on: SARS-CoV-2 UT-NCD1757-1N/ο BA.2.75; assay: microbe, parasite or virus in culture; format: cell-based
[4] = tested on: SARS-CoV-2^WK-521; assay: microbe, parasite or virus in culture; format: cell-based; parameters: EC95, individual assays / EC95, Average: unit: µM
[5] = tested on: SARS-CoV-2 TKYS02037/ο BA.2; assay: microbe, parasite or virus in culture; format: cell-based
[6] = tested on: SARS-CoV-2^WK521 in HeLa-ACE2-TMPRSS2 cells; assay: Antiviral assay, HeLa-ACE2-TMPRSS2 cells, WK521; format: cell-based
[7] = tested on: SARS-CoV-2^WK521 in A549-ACE2-TMPRSS2 cells; assay: Antiviral assay, A549-ACE2-TMPRSS2 cells, WK521; format: cell-based
[8] = molecular target: T1, human calpain (Homo sapiens, UniProt P07384); assay: Human calpain activity assay; format: biochemical; conditions: triplicate, read-out: %inhibition against humanCalpain
T1 sequence (P07384 2-714): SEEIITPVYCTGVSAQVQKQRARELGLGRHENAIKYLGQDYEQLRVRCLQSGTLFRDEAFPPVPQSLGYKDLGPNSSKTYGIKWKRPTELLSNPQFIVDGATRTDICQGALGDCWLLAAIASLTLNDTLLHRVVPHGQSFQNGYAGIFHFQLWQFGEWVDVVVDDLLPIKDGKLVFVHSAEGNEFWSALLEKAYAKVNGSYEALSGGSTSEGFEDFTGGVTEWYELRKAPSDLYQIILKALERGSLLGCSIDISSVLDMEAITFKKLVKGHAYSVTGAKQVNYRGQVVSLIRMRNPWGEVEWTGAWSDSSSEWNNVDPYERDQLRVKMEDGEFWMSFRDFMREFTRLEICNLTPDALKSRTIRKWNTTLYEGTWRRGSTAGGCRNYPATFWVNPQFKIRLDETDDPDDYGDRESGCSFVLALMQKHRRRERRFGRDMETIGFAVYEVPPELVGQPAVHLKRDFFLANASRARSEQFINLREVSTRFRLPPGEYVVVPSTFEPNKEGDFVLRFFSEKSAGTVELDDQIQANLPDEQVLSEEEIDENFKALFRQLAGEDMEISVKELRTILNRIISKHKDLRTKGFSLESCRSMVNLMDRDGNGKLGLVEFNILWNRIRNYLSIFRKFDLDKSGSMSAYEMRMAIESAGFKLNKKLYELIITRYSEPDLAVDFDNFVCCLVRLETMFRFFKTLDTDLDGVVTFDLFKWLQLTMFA
T1 sequence (P04632 1-268 partner): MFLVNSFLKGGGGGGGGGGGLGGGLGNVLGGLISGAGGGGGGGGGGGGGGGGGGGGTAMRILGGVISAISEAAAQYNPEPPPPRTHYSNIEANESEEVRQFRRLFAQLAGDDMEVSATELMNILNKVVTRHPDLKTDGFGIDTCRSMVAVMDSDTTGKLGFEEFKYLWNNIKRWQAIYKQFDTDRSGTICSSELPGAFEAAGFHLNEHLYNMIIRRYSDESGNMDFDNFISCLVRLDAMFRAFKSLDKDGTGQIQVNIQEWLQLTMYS

[9] = Hela ACE2 TMPRSS2, drug 10, duplicates
[10] = Hela ACE2 TMPRSS2, drug 50, duplicates
[11] = Hela ACE2 TMPRSS2, drug 100, duplicates

With `CC(C)(C)[C@H](NC(=O)C(F)(F)F)C(=O)N1C[C@H]2[C@@H]([C@H]1C(=O)N[C@H](C#N)C[C@@H]1CCNC1=O)C2(C)C` [Nirmatrelvir, reference compound] the Plasma concentration ([1]; 240 min) was 34.58 ng/mL and 30.74 ng/mL, the Plasma concentration ([1]; 480 min) was 4.42 ng/mL and 7.44 ng/mL and 18.67 ng/mL and the Plasma concentration ([1]; 1440 min) was 0.61 ng/mL and 0.54 ng/mL. For the same compound, the “Intracellular amount, avg” value ([2]; Hela ACE2 TMPRSS2, 10uM) was 0.5065 pmol(total), the “Intracellular amount, individual” value ([2]; Hela ACE2 TMPRSS2, 10uM) was 0.5088 pmol(total) and 0.5041 pmol(total) and the “Intracellular amount, avg” value ([2]; Hela ACE2 TMPRSS2, 50uM) was 1.799 pmol(total). For the same compound, the “Intracellular amount, individual” value ([2]; Hela ACE2 TMPRSS2, 50uM) was 1.518 pmol(total) and 2.08 pmol(total), the “Intracellular amount, avg” value ([2]; Hela ACE2 TMPRSS2, 100uM) was 3.821 pmol(total) and the “Intracellular amount, individual” value ([2]; Hela ACE2 TMPRSS2, 100uM) was 3.049 pmol(total) and 4.592 pmol(total). The “intracellular compound, pmol(total)” value [2, 9] was 0.5088 pmol and 0.5041 pmol, the “intracellular compound, /1x10^6” value [2, 9] was 0.2035 /1x10^6 and 0.2016 /1x10^6 and the “intracellular compound, calculated value /20uL” value [2, 9] was 0.53 /20uL and 0.52 /20uL. For the same compound, the “intracellular compound, pmol(total)” value [2, 10] was 1.518 pmol and 2.08 pmol, the “intracellular compound, /1x10^6” value [2, 10] was 0.6073 /1x10^6 and 0.832 /1x10^6 and the “intracellular compound, calculated value /20uL” value [2, 10] was 1.70 /20uL and 1.83 /20uL. The “intracellular compound, pmol(total)” value [2, 11] was 3.049 pmol and 4.592 pmol, the “intracellular compound, /1x10^6” value [2, 11] was 1.22 /1x10^6 and 1.837 /1x10^6 and the “intracellular compound, calculated value /20uL” value [2, 11] was 3.90 /20uL and 4.04 /20uL. The EC50 ([3]; Severe acute respiratory syndrome coronavirus 2, Vero C1008, read-out: EC50 against UT-NCD1757-1N/ο BA.2.75) was 0.967 ± 0.135 µM, the EC50 ([3]; Severe acute respiratory syndrome coronavirus 2, Vero C1008, read-out: EC50 ο BA2.75, Average) was 0.967 µM and the EC50 ([3]; Severe acute respiratory syndrome coronavirus 2, Vero C1008, read-out: EC50 ο BA2.75, individual assays) was 0.83 µM. The EC50 ([3]; read-out: EC50 ο BA2.75, individual assays) was 0.97 µM and 1.1 µM, the “EC95, Average” value [4] was 7.815 and the “EC95, individual assays” value [4] was 8.01 and 9.89 and 6.31 and 7.05. The “SARS-CoV2 RNA VeroE6 cell-based assay EC95” value [4] was 7.81 ± 1.55 µM, the EC50 ([4]; Severe acute respiratory syndrome coronavirus 2, Vero C1008, read-out: EC50, Average) was 0.943 µM and the EC50 ([4]; Severe acute respiratory syndrome coronavirus 2, Vero C1008, read-out: EC50, VeroE6 + 2 µM CP100356) was 0.025 µM. The EC50 ([4]; Severe acute respiratory syndrome coronavirus 2, Vero C1008, read-out: EC50, VeroE6 with CP100356, Average) was 0.025 µM, the EC50 ([4]; Severe acute respiratory syndrome coronavirus 2, Vero C1008, read-out: EC50, VeroE6 with CP100356, individual assays) was 0.022 µM and the EC50 ([4]; Severe acute respiratory syndrome coronavirus 2, Vero C1008, read-out: SARS-CoV2 RNA VeroE6 cell-based assay EC50) was 0.94 ± 0.21 µM. For the same compound, the EC50 ([4]; read-out: EC50, Average) was 1.02 µM, the EC50 ([4]; read-out: EC50, VeroE6 with CP100356, individual assays) was 0.027 µM and the EC50 ([4]; read-out: EC50, individual assays) was 1.09 µM and 0.7 µM and 1.15 µM and 0.83 µM and 1.47 µM. For the same compound, the EC50 ([5]; Severe acute respiratory syndrome coronavirus 2, Vero C1008, read-out: EC50 against TKYVS2037/ο BA.2) was 1.24 ± 0.125 µM, the EC50 ([5]; Severe acute respiratory syndrome coronavirus 2, Vero C1008, read-out: EC50 ο BA2, individual assays) was 1.23 µM and the EC50 ([5]; read-out: EC50 ο BA2, individual assays) was 1.12 µM and 1.37 µM. It also gave an EC50 ([6]; Severe acute respiratory syndrome coronavirus 2, SARS-CoV-2^WK521, read-out: EC50, HeLa-ACE2-TMPRSS2) of 0.24 ± 0.05 µM, an EC50 ([6]; Severe acute respiratory syndrome coronavirus 2, read-out: EC50, HeLa-AEC2-TMPRSS2, individual assays, source data) of 0.3 µM and an EC50 ([6]; Severe acute respiratory syndrome coronavirus 2, source data, read-out: EC50, HeLa-AEC2-TMPRSS2, Average) of 0.237 µM. The EC50 ([6]; read-out: EC50, HeLa-AEC2-TMPRSS2, individual assays, source data) was 0.2 µM and 0.21 µM, the EC50 ([7]; Severe acute respiratory syndrome coronavirus 2, SARS-CoV-2^WK521, read-out: EC50, A549-ACE2-TMPRSS2) was 0.017 ± 0.003 µM and the EC50 ([7]; Severe acute respiratory syndrome coronavirus 2, source data, read-out: EC50, A549-AEC2-TMPRSS2, Average) was 0.0174 µM. For the same compound, the EC50 ([7]; Severe acute respiratory syndrome coronavirus 2, source data, read-out: EC50, A549-AEC2-TMPRSS2, individual assays) was 0.02 µM, the EC50 ([7]; source data, read-out: EC50, A549-AEC2-TMPRSS2, individual assays) was 0.0174 µM and 0.0148 µM and the inhibition at 0.000128 µM ([8]; 0.000128 µM) was 0%. It also gave an inhibition at 0.00064 µM ([8]; 0.00064 µM) of 0%, an inhibition at 0.0032 µM ([8]; 0.0032 µM) of 0% and an inhibition at 0.08 µM ([8]; 0.08 µM) of 0%. It also gave an inhibition at 0.4 µM ([8]; 0.4 µM) of 0%.
